Source: patent US11339157B1, “4H-pyrrolo[3,2-c]pyridin-4-one derivatives” (Bayer Aktiengesellschaft, priority 2017, dated 2022)
Where “and” joins values, the source holds several entries; their conditions need not be identical. Identical values can stand only once.

What was measured:
Ba/F3-EGFR-insSVD cells = assay: Proliferation assay in BA/F3 (ins SVD) cells (Cell Titer-Glo); assay type: cell-based
Experimental: (§1) Cellular Data Description (WT, insSVD, Ins ASV)
(§2) Plates were incubated at 37° C. for 48 h. Retrovirus was harvested by filtering the media supernatant through a 0.45 μm filter.
(§3) Ba/F3 cells purchased from DSMZ were grown in RPMI+10% FBS+10 ng/mL IL-3 and infected with filtered retroviral supernatant at a 1:2 dilution. Polybrene was added to a concentration of 8 μg/mL, plates were spun for 90 min, and incubated overnight at 37° C. 2 μg/mL puromycin was added to the infected cells 24 h after infection and cells were continually grown in the presence of puromycin and 10 ng/mL IL-3. Following stably expressing Ba/F3 cell lines were generated: Ba/F3-EGFR-WT, Ba/F3-EGFR-insSVD.
(§4) The cells ectopically expressing WT EGFR were plated with 10 ng/mL Millipore Culture grade EGF. The cells ectopically expressing EGFR-insSVD were plated without EGF.
(§5) 100 nL of compound was added to each well using a 100 nL pin head, and plates were incubated at 37° C. for 48 h.
(§6) Cell viability was measured by adding 30 μL of Cell Titer-Glo Luminescent Cell Viability Reagent. Plates were sealed with Perkin Elmer Top-Seal, inverted several times to mix, and immediately centrifuged at 1000 rpm for 2 min. Plates were incubated in low light conditions for 8-10 min and luminescence was measured.

[1] = target: EGFR ins SVD (insertion of SVD between D770 and N771) (Homo sapiens, UniProt P00533, INS767SVD); assay: Exon 20-Mutant-EGFR(D770_N771insSVD) kinase assay (TR-FRET); assay type: biochemical; settings: Table 9; read-out: mutEGFR (D770_N771insSVD) kinase assay IC50
Sequence of EGFR ins SVD (insertion of SVD between D770 and N771) (P00533 with tags, fused parts or gaps INS767SVD limits assumed): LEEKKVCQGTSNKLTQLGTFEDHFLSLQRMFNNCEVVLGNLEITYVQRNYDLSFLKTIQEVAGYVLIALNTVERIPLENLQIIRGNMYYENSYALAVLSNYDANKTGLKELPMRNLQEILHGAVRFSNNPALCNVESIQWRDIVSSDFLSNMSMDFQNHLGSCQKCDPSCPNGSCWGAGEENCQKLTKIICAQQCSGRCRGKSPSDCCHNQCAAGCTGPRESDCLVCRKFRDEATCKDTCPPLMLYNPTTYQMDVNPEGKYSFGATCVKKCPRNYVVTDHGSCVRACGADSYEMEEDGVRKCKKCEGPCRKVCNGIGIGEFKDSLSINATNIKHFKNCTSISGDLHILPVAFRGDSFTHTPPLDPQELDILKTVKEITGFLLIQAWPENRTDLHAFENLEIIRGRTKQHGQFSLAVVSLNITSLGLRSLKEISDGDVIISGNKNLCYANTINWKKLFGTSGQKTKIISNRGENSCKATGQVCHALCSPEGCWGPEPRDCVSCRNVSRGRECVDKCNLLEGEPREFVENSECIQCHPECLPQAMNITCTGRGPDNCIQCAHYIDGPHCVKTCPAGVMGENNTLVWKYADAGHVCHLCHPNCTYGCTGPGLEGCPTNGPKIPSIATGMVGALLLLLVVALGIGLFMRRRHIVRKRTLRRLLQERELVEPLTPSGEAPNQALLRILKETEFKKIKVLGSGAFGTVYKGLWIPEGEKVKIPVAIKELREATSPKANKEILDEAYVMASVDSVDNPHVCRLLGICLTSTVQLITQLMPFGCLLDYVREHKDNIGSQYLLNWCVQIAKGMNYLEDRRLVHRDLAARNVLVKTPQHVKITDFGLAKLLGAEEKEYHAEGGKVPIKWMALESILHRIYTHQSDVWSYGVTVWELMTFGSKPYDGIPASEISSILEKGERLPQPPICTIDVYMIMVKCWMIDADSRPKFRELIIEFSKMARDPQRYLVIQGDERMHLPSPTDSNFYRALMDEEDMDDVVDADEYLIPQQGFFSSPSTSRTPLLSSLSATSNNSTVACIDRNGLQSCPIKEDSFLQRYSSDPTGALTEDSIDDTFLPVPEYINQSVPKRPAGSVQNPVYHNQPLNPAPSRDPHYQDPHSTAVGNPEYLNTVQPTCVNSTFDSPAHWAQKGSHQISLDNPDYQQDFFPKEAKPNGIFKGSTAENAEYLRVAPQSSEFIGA
Experimental: Exon 20-Mutant-EGFR(D770_N771insSVD) Kinase Assay
Inhibitory activity of compounds of the present invention against an Epidermal Growth Factor Receptor (EGFR) with an insertion of the amino acids sequence SVD between D770 and N771 was quantified employing the TR-FRET based kinase activity assay as described in the following paragraphs.
For the assay 50 nl of a 100-fold concentrated solution of the test compound in DMSO was pipetted into either a black low volume 384 well microtiter plate or a black 1536 well microtiter plate (both Greiner Bio-One, Frickenhausen, Germany), 2 μl of a solution of EGFR in aqueous assay buffer [50 mM Hepes pH 7.0, 10 mM MgCl2, 1 mM dithiothreitol, 0.5 mM EGTA, 0.3 mM activated sodium ortho-vanadate, 0.005% (w/v) bovine serum albumin, 0.005% (v/v) Tween-20] were added and the mixture was incubated for 15 min at 22° C. to allow pre binding of the test compounds to the enzyme before the start of the kinase reaction. […] The concentration of EGFR was adjusted depending of the activity of the enzyme lot and was chosen appropriate to have the assay in the linear range, typical concentration was 15 pg/μl. The reaction was stopped by the addition of 3 μl of a solution of HTRF detection reagents (83.3 nM streptavidine-XL665 [Cisbio Bioassays, Codolet, France] and 1.67 nM PT66-Tb-Cryptate, a terbium-cryptate labelled anti-phospho-tyrosine antibody from Cisbio Bioassays [instead of the PT66 Tb cryptate PT66 Eu Chelate from Perkin Elmer can also be used]) in an aqueous EDTA-solution (133.3 mM EDTA, 0.2% (w/v) bovine serum albumin in 50 mM HEPES pH 7.5).
The resulting mixture was incubated 1 h at 22° C. to allow the binding of the biotinylated phosphorylated peptide to the streptavidine-XL665 and the PT66-Tb-Cryptate. Subsequently the amount of phosphorylated substrate was evaluated by measurement of the resonance energy transfer from the PT66-Tb-Cryptate to the streptavidine-XL665.

Ba/F3-EGFR-WT cells = assay: Proliferation assay in BA/F3 (wild type) cells (Cell Titer-Glo); assay type: cell-based
Experimental: as §1, §2, §3, §4, §5, §6

[2] = Mus musculus, BaF3, 48 h, Table 10, plated without EGF
[3] = Mus musculus, BaF3, 48 h, Table 10, plated with 10 ng/mL EGF
[4] = Mus musculus, BaF3, Table 10, plated without EGF, 48 h
[5] = Mus musculus, BaF3, Table 10, plated with 10 ng/mL EGF, 48 h

## COC(C)(C)COc1cnccc1-c1[nH]c2c(c1Nc1cc(F)ccc1C)C(=O)NCC2 [Example 45, 3-(5-fluoro-2-methylanilino)-2-[3-(2-methoxy-2-methylpropoxy)pyridin-4-yl]-1,5,6,7-tetrahydro-4H-pyrrolo[3,2-c]pyridin-4-one]
Ba/F3-EGFR-insSVD cells; [2]
  IC50: 255 nM
[1]
  IC50: 0.319 nM
Ba/F3-EGFR-WT cells; [3]
  IC50: 2490 nM

## COC(C)(C)COc1cnccc1-c1[nH]c2c(c1Nc1cccc(F)c1Br)C(=O)NCC2 [Example 37, 3-(2-bromo-3-fluoroanilino)-2-[3-(2-methoxy-2-methylpropoxy)pyridin-4-yl]-1,5,6,7-tetrahydro-4H-pyrrolo[3,2-c]pyridin-4-one]
Ba/F3-EGFR-insSVD cells; [2]
  IC50: 16 nM
[1]
  IC50: 0.12 nM and 0.0795 nM and 0.107 nM and 0.0958 nM and < 0.0725 nM (2×)
Ba/F3-EGFR-WT cells; [3]
  IC50: 583 nM

## Cc1c(F)cccc1Nc1c(-c2ccncc2OC[C@@H]2CCCN2C)[nH]c2c1C(=O)NCC2 [Example 49, 3-(3-fluoro-2-methylanilino)-2-(3-{[(25)-1-methylpyrrolidin-2-yl]methoxy}pyridin-4-yl)-1,5,6,7-tetrahydro-4H-pyrrolo[3,2-c]pyridin-4-one]
Ba/F3-EGFR-insSVD cells; [4]
  IC50: 19.1 nM
[1]
  IC50: 0.518 nM
Ba/F3-EGFR-WT cells; [5]
  IC50: 919 nM

## COc1c(Cl)cccc1Nc1c(-c2ccncc2OC[C@@H]2CCCN2C)[nH]c2c1C(=O)NCC2 [Example 48, 3-(3-chloro-2-methoxyanilino)-2-(3-{[(2S)-1-methylpyrrolidin-2-yl]methoxy}pyridin-4-yl)-1,5,6,7-tetrahydro-4H-pyrrolo[3,2-c]pyridin-4-one]
Ba/F3-EGFR-insSVD cells; [2]
  IC50: 5.59 nM
[1]
  IC50: 0.358 nM
Ba/F3-EGFR-WT cells; [3]
  IC50: 276 nM

## Cc1c(F)cc(F)cc1Nc1c(-c2ccncc2OCC(C)(C)N(C)C)[nH]c2c1C(=O)NCC2 [Example 62, 3-(3,5-difluoro-2-methylanilino)-2-{3-[2-(dimethylamino)-2-methylpropoxy]pyridin-4-yl}-1,5,6,7-tetrahydro-4H-pyrrolo[3,2-c]pyridin-4-one]
Ba/F3-EGFR-insSVD cells; [2]
  IC50: 166 nM
[1]
  IC50: 0.663 nM
Ba/F3-EGFR-WT cells; [3]
  IC50: 2760 nM

## COc1c(Cl)cccc1Nc1c(-c2ccncc2OCC(C)(C)OC)[nH]c2c1C(=O)NCC2 [Example 33, 3-(3-chloro-2-methoxyanilino)-2-[3-(2-methoxy-2-methylpropoxy)pyridin-4-yl]-1,5,6,7-tetrahydro-4H-pyrrolo[3,2-c]pyridin-4-one]
Ba/F3-EGFR-insSVD cells; [2]
  IC50: 9.32 nM
[1]
  IC50: 0.225 nM and 0.334 nM and 0.166 nM and 0.161 nM and 0.275 nM and < 0.0725 nM
Ba/F3-EGFR-WT cells; [3]
  IC50: 476 nM

## COc1c(Cl)cccc1Nc1c(-c2ccncc2OCC2CCCCN2C)[nH]c2c1C(=O)NCC2 (stereo not drawn) [Example 63, 3-(3-chloro-2-methoxyanilino)-2-(3-{[1-methylpiperidin-2-yl]methoxy}pyridin-4-yl)-1,5,6,7-tetrahydro-4H-pyrrolo[3,2-c]pyridin-4-one]
Ba/F3-EGFR-insSVD cells; [2]
  IC50: 12.3 nM
[1]
  IC50: 0.509 nM
Ba/F3-EGFR-WT cells; [3]
  IC50: 485 nM

## COc1c(Nc2c(-c3ccncc3OCC(C)(C)OC)[nH]c3c2C(=O)NCC3)ccc(F)c1Cl [Example 44, 3-(3-chloro-4-fluoro-2-methoxyanilino)-2-[3-(2-methoxy-2-methylpropoxy)pyridin-4-yl]-1,5,6,7-tetrahydro-4H-pyrrolo[3,2-c]pyridin-4-one]
Ba/F3-EGFR-insSVD cells; [2]
  IC50: 173 nM
[1]
  IC50: 0.0922 nM and < 0.0725 nM
Ba/F3-EGFR-WT cells; [3]
  IC50: 2450 nM

## O=C1NCCc2[nH]c(-c3ccncc3OCCN3CCOCC3)c(Nc3cccc(Cl)c3OC(F)F)c21 [Example 81, 3-[3-chloro-2-(difluoromethoxy)anilino]-2-{3-[2-(morpholin-4-yl)ethoxy]pyridin-4-yl}-1,5,6,7-tetrahydro-4H-pyrrolo[3,2-c]pyridin-4-one]
Ba/F3-EGFR-insSVD cells; [4]
  IC50: 405 nM
[1]
  IC50: 0.441 nM
Ba/F3-EGFR-WT cells; [5]
  IC50: 4190 nM

## O=C1NCCc2[nH]c(-c3ccncc3OCC3CCOCC3)c(Nc3cccc(Cl)c3OC(F)F)c21 [Example 82, 3-[3-chloro-2-(difluoromethoxy)anilino)-2-{3-[(oxan-4-yl)-methoxy]pyridin-4-yl}-1,5,6,7-tetrahydro-4H-pyrrolo[3,2-c]pyridin-4-one]
Ba/F3-EGFR-insSVD cells; [2]
  IC50: 909 nM
[1]
  IC50: 0.399 nM
Ba/F3-EGFR-WT cells; [3]
  IC50: 8610 nM

## Cc1c(Cl)cccc1Nc1c(-c2ccncc2OCCN(C)C)[nH]c2c1C(=O)NCC2 [Example 52, 3-(3-chloro-2-methylanilino)-2-{3[2-(dimethylamino)ethoxy]pyridin-4-yl}1,5,6,7-tetrahydro-4H-pyrrolo[3,2-c]pyridin-4-one]
Ba/F3-EGFR-insSVD cells; [2]
  IC50: 29.1 nM
[1]
  IC50: 0.55 nM
Ba/F3-EGFR-WT cells; [3]
  IC50: 834 nM

## COC(C)(C)COc1cnccc1-c1[nH]c2c(c1Nc1ccccc1Cl)C(=O)NCC2 [Example 39, 3-(2-chloroanilino)-2-[3-(2-methoxy-2-methylpropoxy)pyridin-4-yl]-1,5,6,7-tetrahydro-4H-pyrrolo[3,2-c]pyridin-4-one]
Ba/F3-EGFR-insSVD cells; [2]
  IC50: 27.5 nM
[1]
  IC50: 0.104 nM
Ba/F3-EGFR-WT cells; [3]
  IC50: 661 nM

## O=C1NCCc2[nH]c(-c3ccncc3OCC3CCOC3)c(Nc3cccc(Cl)c3OC(F)F)c21 (stereo not drawn) [Example 79, 3-[3-chloro-2-(difluoromethoxy)anilino]-2-{3-[(oxolan-3-yl)methoxy]pyridin-4-yl}-1,5,6,7-tetrahydro-4H-pyrrolo[3,2-c]pyridin-4-one]
Ba/F3-EGFR-insSVD cells; [2]
  IC50: 118 nM
[1]
  IC50: 0.242 nM
Ba/F3-EGFR-WT cells; [3]
  IC50: 1810 nM

## COc1c(Cl)cccc1Nc1c(-c2ccncc2OCC2CCCCO2)[nH]c2c1C(=O)NCC2 (stereo not drawn) [Example 68]
Ba/F3-EGFR-insSVD cells; [2]
  IC50: 2.94 nM
[1]
  IC50: 0.115 nM
Ba/F3-EGFR-WT cells; [3]
  IC50: 109 nM

## COc1c(F)cccc1Nc1c(-c2ccncc2OC[C@@H](C)OC)[nH]c2c1C(=O)NCC2 [Example 92, 3-(3-fluoro-2-methoxyanilino)-2-{3-[(2R)-2-methoxypropoxy]pyridin-4-yl}-1,5,6,7-tetrahydro-4H-pyrrolo[3,2-c]pyridin-4-one]
Ba/F3-EGFR-insSVD cells; [2]
  IC50: 10.4 nM
[1]
  IC50: 0.118 nM
Ba/F3-EGFR-WT cells; [3]
  IC50: 309 nM

## COc1c(F)cccc1Nc1c(-c2ccncc2OCC(C)(C)N2CCOCC2)[nH]c2c1C(=O)NCC2 [Example 75, 3-(3-fluoro-2-methoxyanilino)-2-{3-[2-methyl-2-(morpholin-4-yl)propoxy]pyridin-4-yl}-1,5,6,7-tetrahydro-4H-pyrrolo[3,2-c]pyridin-4-one]
Ba/F3-EGFR-insSVD cells; [4]
  IC50: 98 nM
[1]
  IC50: 0.903 nM
Ba/F3-EGFR-WT cells; [5]
  IC50: 2360 nM

## COC(C)(C)COc1cnccc1-c1[nH]c2c(c1Nc1ccccc1C(F)(F)F)C(=O)NCC2 [Example 42, 2-[3-(2-methoxy-2-methylpropoxy)pyridin-4-yl]-3-[2-(trifluoromethyl)anilino]-1,5,6,7-tetrahydro-4H-pyrrolo[3,2-c]pyridin-4-one]
Ba/F3-EGFR-insSVD cells; [2]
  IC50: 72.9 nM
[1]
  IC50: 0.19 nM
Ba/F3-EGFR-WT cells; [3]
  IC50: 625 nM

## COc1c(F)cccc1Nc1c(-c2ccncc2OCC2CCCO2)[nH]c2c1C(=O)NCC2 (single isomer, unassigned; enantiomer 2) [Example 89, 3-(3-fluoro-2-methoxyanilino)-2-{3-[(oxolan-2-yl)methoxy]pyridin-4-yl}-1,5,6,7-tetrahydro-4H-pyrrolo[3,2-c]pyridin-4-one (enantiomer 2)]
Ba/F3-EGFR-insSVD cells; Table 10, plated without EGF, 48 h
  IC50: 12.8 nM
[1]
  IC50: 0.108 nM
Ba/F3-EGFR-WT cells; Table 10, plated with 10 ng/mL EGF, 48 h
  IC50: 252 nM
